Paper PMC9516332 (Frontiers in Oncology, 2022)

Columns and labels:
Test in all cases: Kinase panel profiling at 1 µmol/L (MSA or IMAP), percentage inhibition
Type in all cases: biochemical
[1] = target: panel of 255 wild-type kinases (Homo sapiens, UniProt P09769); conditions: kinase FGR; 1 µmol/L single concentration; read-out: %-inhibition at 1 µmol/L, FGR
[2] = target: T1, panel of 255 wild-type kinases (Homo sapiens, UniProt Q13043); conditions: MST1; 1 µmol/L single concentration; read-out: %-inhibition, MST1
T1 sequence (Q13043 1-487): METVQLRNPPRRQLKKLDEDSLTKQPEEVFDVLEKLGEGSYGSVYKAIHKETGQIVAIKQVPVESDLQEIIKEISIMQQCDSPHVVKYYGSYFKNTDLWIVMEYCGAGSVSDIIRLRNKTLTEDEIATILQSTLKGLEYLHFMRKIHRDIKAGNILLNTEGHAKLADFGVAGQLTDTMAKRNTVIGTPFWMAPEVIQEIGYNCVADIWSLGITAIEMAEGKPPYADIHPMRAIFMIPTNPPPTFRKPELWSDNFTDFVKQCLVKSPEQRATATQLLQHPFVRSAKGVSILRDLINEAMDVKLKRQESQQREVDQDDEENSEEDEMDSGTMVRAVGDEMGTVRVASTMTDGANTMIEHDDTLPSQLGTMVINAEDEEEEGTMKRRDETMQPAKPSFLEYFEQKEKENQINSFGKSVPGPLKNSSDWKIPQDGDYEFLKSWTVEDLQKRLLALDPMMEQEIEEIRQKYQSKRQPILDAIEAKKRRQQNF

[3] = target: panel of 255 wild-type kinases (Homo sapiens, UniProt P07947); conditions: kinase YES; 1 µmol/L single concentration; read-out: %-inhibition at 1 µmol/L, YES
[4] = target: panel of 255 wild-type kinases (Homo sapiens, UniProt Q14680); conditions: MELK; 1 µmol/L single concentration; read-out: %-inhibition, MELK
[5] = target: panel of 255 wild-type kinases (Homo sapiens, UniProt P17252); conditions: kinase PKCα; 1 µmol/L single concentration; read-out: %-inhibition at 1 µmol/L, PKCα
[6] = target: T2, panel of 255 wild-type kinases (Homo sapiens, UniProt P51817); conditions: kinase PRKX; 1 µmol/L single concentration; read-out: %-inhibition at 1 µmol/L, PRKX
T2 sequence (P51817 1-358): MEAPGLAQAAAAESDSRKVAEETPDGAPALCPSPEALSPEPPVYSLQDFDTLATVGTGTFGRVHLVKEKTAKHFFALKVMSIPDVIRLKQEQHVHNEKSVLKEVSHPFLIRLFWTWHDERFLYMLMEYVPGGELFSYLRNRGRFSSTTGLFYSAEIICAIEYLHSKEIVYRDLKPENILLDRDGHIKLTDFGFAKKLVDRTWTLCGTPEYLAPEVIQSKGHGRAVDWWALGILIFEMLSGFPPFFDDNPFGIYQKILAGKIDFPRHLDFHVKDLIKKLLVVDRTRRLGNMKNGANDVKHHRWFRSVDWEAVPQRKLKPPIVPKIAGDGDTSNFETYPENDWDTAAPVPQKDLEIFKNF

[7] = target: T3, panel of 255 wild-type kinases (Homo sapiens, UniProt Q16566); conditions: CaMK4 kinase assay; 1 µmol/L single concentration; read-out: %-inhibition CaMK4
T3 sequence (Q16566 1-473): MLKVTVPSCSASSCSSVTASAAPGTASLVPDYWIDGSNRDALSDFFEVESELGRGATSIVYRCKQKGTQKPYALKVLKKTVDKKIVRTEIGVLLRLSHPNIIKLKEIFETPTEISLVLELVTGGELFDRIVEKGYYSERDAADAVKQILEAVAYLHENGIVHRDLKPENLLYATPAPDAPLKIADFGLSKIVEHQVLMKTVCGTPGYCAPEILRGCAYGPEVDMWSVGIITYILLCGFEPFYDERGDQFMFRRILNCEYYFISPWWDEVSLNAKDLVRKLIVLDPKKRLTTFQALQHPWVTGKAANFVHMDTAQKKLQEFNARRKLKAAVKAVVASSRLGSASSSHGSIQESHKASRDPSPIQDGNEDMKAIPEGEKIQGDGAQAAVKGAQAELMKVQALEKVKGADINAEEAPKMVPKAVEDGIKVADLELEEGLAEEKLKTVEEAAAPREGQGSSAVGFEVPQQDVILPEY

[8] = target: T4, panel of 255 wild-type kinases (Homo sapiens, UniProt Q9UF33); conditions: kinase EPHA6; 1 µmol/L single concentration; read-out: %-inhibition at 1 µmol/L, EPHA6
T4 sequence (Q9UF33 23-1036): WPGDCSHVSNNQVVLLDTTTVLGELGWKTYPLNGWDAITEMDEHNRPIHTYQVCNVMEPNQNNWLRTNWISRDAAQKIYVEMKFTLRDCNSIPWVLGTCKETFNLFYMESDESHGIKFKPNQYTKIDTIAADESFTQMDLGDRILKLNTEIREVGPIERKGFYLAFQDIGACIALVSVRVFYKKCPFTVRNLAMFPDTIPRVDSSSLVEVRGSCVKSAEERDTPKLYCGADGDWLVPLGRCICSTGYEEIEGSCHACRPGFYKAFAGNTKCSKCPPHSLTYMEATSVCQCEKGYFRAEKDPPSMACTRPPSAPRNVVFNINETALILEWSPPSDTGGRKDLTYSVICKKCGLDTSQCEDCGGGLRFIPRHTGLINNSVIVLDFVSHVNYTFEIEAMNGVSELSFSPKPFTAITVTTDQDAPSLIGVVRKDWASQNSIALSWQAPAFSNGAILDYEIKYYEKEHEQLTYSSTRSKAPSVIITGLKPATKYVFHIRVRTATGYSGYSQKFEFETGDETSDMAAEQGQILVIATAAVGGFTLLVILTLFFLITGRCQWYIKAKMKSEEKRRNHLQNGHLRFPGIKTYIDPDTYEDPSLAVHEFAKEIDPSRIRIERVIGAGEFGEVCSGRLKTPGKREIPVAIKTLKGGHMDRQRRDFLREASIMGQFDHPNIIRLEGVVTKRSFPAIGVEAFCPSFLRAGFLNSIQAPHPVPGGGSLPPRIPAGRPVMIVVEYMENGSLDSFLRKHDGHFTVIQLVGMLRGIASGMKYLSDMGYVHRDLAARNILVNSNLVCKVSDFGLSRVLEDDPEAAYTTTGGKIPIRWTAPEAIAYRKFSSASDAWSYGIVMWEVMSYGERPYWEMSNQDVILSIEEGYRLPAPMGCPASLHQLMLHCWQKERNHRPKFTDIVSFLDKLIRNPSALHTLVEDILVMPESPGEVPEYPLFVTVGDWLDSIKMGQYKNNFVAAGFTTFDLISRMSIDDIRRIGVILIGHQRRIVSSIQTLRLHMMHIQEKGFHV

| SMILES | inhibition at 1 µM [1] [%] | inhibition at 1 µM [2] [%] | inhibition at 1 µM [3] [%] | inhibition at 1 µM [4] [%] | inhibition at 1 µM [5] [%] | inhibition at 1 µM [6] [%] | inhibition at 1 µM [7] [%] | inhibition at 1 µM [8] [%] |
| --- | --- | --- | --- | --- | --- | --- | --- | --- |
| CCn1c(=O)c(-c2cc(NC(=O)Nc3ccccc3)c(F)cc2Br)cc2cnc(NC)cc21 [ripretinib] | 50 | 3 | 81 | 30 | -1.85 | 0.705 | 1.71 | 99 |
| Cn1cnc2c(F)c(Nc3ccc(Br)cc3Cl)c(C(=O)NOCCO)cc21 [selumetinib] | -0.332 | -2.38 | 14 | -2.6 | 0.203 | -4.53 | -2 | 1 |
| Cc1cc(Nc2ncnc3ccc(NC4=NC(C)(C)CO4)cc23)ccc1Oc1ccn2ncnc2c1 [tucatinib] | 6 | 4 | 3.64 | 0.809 | 5 | -1.54 | 0.435 | 2.19 |

The remaining lines, values ahead:

| inhibition at 1 µM [1] [%] | inhibition at 1 µM [2] [%] | inhibition at 1 µM [3] [%] | inhibition at 1 µM [4] [%] | inhibition at 1 µM [5] [%] | inhibition at 1 µM [6] [%] | inhibition at 1 µM [7] [%] | inhibition at 1 µM [8] [%] | SMILES |
| --- | --- | --- | --- | --- | --- | --- | --- | --- |
| 81 | 19 | 95 | 3.6 | 3 | -0.557 | 0.271 | 87 | CO[C@]1(C(=O)N[C@@H](C)c2ccc(-n3cc(F)cn3)nc2)CC[C@H](c2nc(C)cc(Nc3cc(C)[nH]n3)n2)CC1 [pralsetinib] |
| 51 | -2.33 | 84 | 62 | 3.23 | 55 | -2.54 | 98 | COc1ccc(CN2C3CC2CN(c2ccc(-c4cc(OCC(C)(C)O)cn5ncc(C#N)c45)cn2)C3)cn1 [selpercatinib] |
